Results: ChEMBL document CHEMBL3351476, “The discovery of I-BET726 (GSK1324726A), a potent tetrahydroquinoline ApoA1 up-regulator and selective BET bromodomain inhibitor” (J Med Chem, 2014)
Converted amounts (≈) assume the structure as drawn. The source made the active and inactive calls. The calls are words filed in the database; no cut-off is given here.

Experiments:
HepG2 [1] = experiment: Upregulation of ApoA1 in human HepG2 cells at 1.25 uM after 16 hrs by luciferase reporter assay relative to control; format: functional
HepG2 [2] = experiment: Upregulation of ApoA1 in human HepG2 cells at 10 uM after 16 hrs by luciferase reporter assay relative to control; format: functional
[3] = target: Bromodomain-containing protein 2 (Homo sapiens, UniProt P25440); experiment: Displacement of biotinylated tetra-acetylated histone H4 from His6-tagged BRD2 (1 to 473 aa) (unknown origin) after 1 hr by TR-FRET assay
[4] = target: Bromodomain-containing protein 3 (Homo sapiens, UniProt Q15059); experiment: Displacement of biotinylated tetra-acetylated histone H4 from His6-tagged BRD3 (1 to 475 aa) (unknown origin) after 1 hr by TR-FRET assay
[5] = target: Bromodomain-containing protein 4 (Homo sapiens, UniProt O60885); experiment: Displacement of biotinylated tetra-acetylated histone H4 from His6-tagged BRD4 (1 to 477 aa) (unknown origin) after 1 hr by TR-FRET assay
HepG2 [6] = experiment: Upregulation of ApoA1 in human HepG2 cells after 16 hrs by luciferase reporter assay relative to control; format: functional
Mus musculus [7] = experiment: Antiinflammatory activity in Balb/c mouse assessed as inhibition of LPS-induced PAI-1 mRNA expression in liver administered orally 2 hrs before LPS challenge measured after 2 hrs; format: functional, organism-based
Mus musculus [8] = experiment: Antiinflammatory activity in Balb/c mouse assessed as inhibition of LPS-induced PAI-1 mRNA expression in liver at 3 mg/kg, po 2 hrs before LPS challenge measured after 2 hrs; format: functional, organism-based; set-up: dose 3 mg/kg
[9] = Solubility of the compound in fasted state simulated intestinal fluid at 125 ug/ml after 16 hrs by HPLC analysis; format: ADME; conditions: fasted state simulated intestinal fluid

Bromodomain-containing protein 2, sequence (P25440 whole entry, the tested form may be a part): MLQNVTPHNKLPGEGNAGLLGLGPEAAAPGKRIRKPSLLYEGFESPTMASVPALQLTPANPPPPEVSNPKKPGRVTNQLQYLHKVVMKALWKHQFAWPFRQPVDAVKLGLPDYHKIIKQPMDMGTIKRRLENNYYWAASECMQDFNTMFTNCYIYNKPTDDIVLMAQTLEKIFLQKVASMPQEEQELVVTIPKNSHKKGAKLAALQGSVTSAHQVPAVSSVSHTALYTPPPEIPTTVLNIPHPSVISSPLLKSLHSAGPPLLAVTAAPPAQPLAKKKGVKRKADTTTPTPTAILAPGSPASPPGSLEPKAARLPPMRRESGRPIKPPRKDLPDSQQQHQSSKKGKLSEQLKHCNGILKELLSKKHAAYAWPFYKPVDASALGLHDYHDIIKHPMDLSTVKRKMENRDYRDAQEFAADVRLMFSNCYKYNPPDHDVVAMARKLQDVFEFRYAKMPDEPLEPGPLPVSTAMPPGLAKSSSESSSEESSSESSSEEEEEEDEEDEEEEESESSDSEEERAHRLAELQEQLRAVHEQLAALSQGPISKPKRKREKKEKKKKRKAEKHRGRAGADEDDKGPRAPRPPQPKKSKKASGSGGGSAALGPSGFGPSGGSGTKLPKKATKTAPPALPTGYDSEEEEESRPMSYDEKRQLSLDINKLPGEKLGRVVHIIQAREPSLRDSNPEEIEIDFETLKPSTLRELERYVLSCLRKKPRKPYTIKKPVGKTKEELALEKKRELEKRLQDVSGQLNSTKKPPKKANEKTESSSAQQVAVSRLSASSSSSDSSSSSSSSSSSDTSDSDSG
Bromodomain-containing protein 3, sequence (Q15059 whole entry, the tested form may be a part): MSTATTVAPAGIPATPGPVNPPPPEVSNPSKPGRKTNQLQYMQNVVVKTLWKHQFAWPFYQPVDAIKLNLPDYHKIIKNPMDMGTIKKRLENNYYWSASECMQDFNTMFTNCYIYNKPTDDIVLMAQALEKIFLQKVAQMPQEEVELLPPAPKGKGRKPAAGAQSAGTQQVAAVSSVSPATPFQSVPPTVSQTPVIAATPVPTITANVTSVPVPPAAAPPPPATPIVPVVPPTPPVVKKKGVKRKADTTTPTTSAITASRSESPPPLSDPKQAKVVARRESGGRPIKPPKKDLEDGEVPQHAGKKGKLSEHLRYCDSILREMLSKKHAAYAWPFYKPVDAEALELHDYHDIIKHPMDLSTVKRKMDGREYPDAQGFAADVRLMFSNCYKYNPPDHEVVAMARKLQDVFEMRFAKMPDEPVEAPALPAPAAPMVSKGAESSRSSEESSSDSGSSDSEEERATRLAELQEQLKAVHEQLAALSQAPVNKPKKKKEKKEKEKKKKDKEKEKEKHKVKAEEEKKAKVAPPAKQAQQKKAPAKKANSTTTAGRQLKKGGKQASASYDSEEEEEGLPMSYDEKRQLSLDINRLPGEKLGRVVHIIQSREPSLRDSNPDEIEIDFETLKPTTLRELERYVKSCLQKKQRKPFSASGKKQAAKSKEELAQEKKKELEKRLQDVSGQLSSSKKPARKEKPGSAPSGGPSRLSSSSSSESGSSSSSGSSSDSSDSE

Row | Structure (SMILES) | fold change (FC) (HepG2 [1]) | fold change (FC) (HepG2 [2]) | IC50 [3] | IC50 [4] | IC50 [5] | pEC170 (HepG2 [6]) | inhibition (Mus musculus [7]) | inhibition (Mus musculus [8]) | solubility at 16 h [9]
1 | CC(=O)N1c2ccccc2[C@@H](Nc2ccc(C)cc2)C[C@H]1C (racemic) | 1.7 |  |  |  |  |  |  |  | 
2 | CC(=O)N1c2ccccc2C(Nc2ccccc2)CC1C (mixture of isomers) | 1.7 | 2.3 |  |  |  |  |  |  | 
3 | CC(=O)N1c2ccc(-c3ccc(CN4CCCCC4)cc3)cc2[C@@H](Nc2ccccc2)C[C@H]1C |  |  | 25100 nM | 25100 nM | 25100 nM | 5.9 |  |  | 
4 | CC(=O)N1c2ccc(-c3ccc(C(=O)O)cc3)cc2[C@H](Nc2ccc(Cl)cc2)C[C@@H]1C |  |  |  |  |  |  | Dose-dependent effect | Active | 
5 | COc1cccc(N[C@@H]2C[C@H](C)N(C(C)=O)c3ccc(-c4ccc(C#N)cc4)cc32)c1 (racemic) |  |  | 1580 nM | 794 nM | 1000 nM | 6.7 |  |  | 
6 | COc1ccc(-c2ccc3c(c2)[C@H](Nc2ccccc2)CCN3C(C)=O)cc1 (racemic) |  |  | 6310 nM | 1580 nM | 2510 nM | 6.1 |  |  | 
7 | COC(=O)c1ccc(-c2ccc3c(c2)[C@H](Nc2ccc(C(C)(C)C)cc2)C[C@H](C)N3C(C)=O)cc1 (racemic) |  |  | 501 nM | 501 nM | 631 nM | 6.9 |  |  | 
8 | CC(=O)N1c2ccccc2[C@H](Nc2ccccc2)C[C@@H]1C (racemic) | 1.7 |  |  |  |  |  |  |  | 
9 | CC(=O)N1c2ccc(-c3ccccc3)cc2[C@H](Nc2ccccc2)C[C@@H]1C (racemic) |  |  | 794 nM | 501 nM | 794 nM | 7 |  |  | 
10 | COC(=O)c1ccc(-c2ccc3c(c2)[C@H](Nc2ccc(F)cc2)C[C@H](C)N3C(C)=O)cc1 (racemic) |  |  | 1580 nM | 1000 nM | 794 nM | 7.3 |  |  | 
11 | COC(=O)c1ccc(-c2ccc3c(c2)[C@H](Nc2ccc(S(C)(=O)=O)cc2)C[C@H](C)N3C(C)=O)cc1 (racemic) |  |  | 1260 nM | 501 nM | 631 nM | 6 |  |  | 
12 | CC(=O)N1c2ccc(-c3ccc(C(F)(F)F)cc3)cc2[C@H](Nc2ccccc2)C[C@@H]1C (racemic) |  |  | 2000 nM | 1260 nM | 1000 nM | 6.2 |  |  | 
13 | CC(=O)N1c2ccc(-c3ccccc3C)cc2[C@H](Nc2ccc(Cl)cc2)C[C@@H]1C (racemic) |  |  | 3980 nM | 2510 nM | 3980 nM | 5.6 |  |  | 
14 | CC(=O)N1c2ccc(-c3ccc(C(=O)O)cc3)cc2[C@H](Nc2ccc(S(C)(=O)=O)cc2)C[C@@H]1C (racemic) |  |  | 1000 nM | 316 nM | 316 nM | 5.4 |  |  | 
15 | COC(=O)c1ccc(-c2ccc3c(c2)[C@H](Nc2ccccc2)C[C@H](C)N3C(C)=O)cc1 (racemic) |  |  | 1260 nM | 1000 nM | 1260 nM | 7.4 |  |  | 69 µg/mL (≈ 166 µM)
16 | CC(=O)N1c2ccc(-c3ccc(C(=O)O)cc3)cc2[C@H](Nc2ccc(Cl)cc2)C[C@@H]1C (racemic) |  |  | 398 nM | 398 nM |  | 7.8 |  |  | 
17 | CC(=O)N1c2ccc(-c3ccc(C#N)cc3)cc2[C@H](Nc2ccccc2)C[C@@H]1C (racemic) |  |  | 1000 nM | 794 nM | 631 nM | 7 |  |  | 57 µg/mL (≈ 149 µM)
18 | CC(=O)N1c2ccc(-c3ccc(CN4CCCCC4)cc3)cc2[C@H](N)C[C@@H]1C (racemic) |  |  | 50100 nM | 25100 nM | 25100 nM | <5 |  |  | 
19 | CC(=O)N1c2ccc(-c3ccc(CO)cc3)cc2[C@H](Nc2ccccc2)C[C@@H]1C (racemic) |  |  | 794 nM | 501 nM | 501 nM | 7.5 |  |  | 73 µg/mL (≈ 189 µM)
20 | COc1ccccc1N[C@@H]1C[C@H](C)N(C(C)=O)c2ccc(-c3ccc(C(=O)O)cc3)cc21 (racemic) |  |  | 631 nM | 501 nM | 631 nM | 7.6 |  |  | 
